Results on six compounds are retold here after publication PMC7734625, “Stabilization Strategies for Linear Minigastrin Analogues: Further Improvements via the Inclusion of Proline into the Peptide Sequence” (Journal of Medicinal Chemistry, 2020).

Where two headings read alike, the source gives them in different places. Non-standard residues stand in square brackets, D forms with d. Residues, ends and D or L forms follow the SMILES beside them. *: point of attachment. DOTA = O=C(O)CN1CCN(CC(=O)O)CCN(CC(=O)*)CCN(CC(=O)O)CC1; 1Nal = N[C@@H](Cc1cccc2ccccc12)C(=O)O; NMeNle = CCCC[C@H](NC)C(=O)O

The target of data set [1] is T1, human CCK2R (Homo sapiens, UniProt P32239).
T1 construct: expressed in transfected cells; host or cells: A431 human epidermoid carcinoma cells, stably transfected (pCR3.1), provided by Dr. Luigi Aloj
T1 sequence (P32239 1-447): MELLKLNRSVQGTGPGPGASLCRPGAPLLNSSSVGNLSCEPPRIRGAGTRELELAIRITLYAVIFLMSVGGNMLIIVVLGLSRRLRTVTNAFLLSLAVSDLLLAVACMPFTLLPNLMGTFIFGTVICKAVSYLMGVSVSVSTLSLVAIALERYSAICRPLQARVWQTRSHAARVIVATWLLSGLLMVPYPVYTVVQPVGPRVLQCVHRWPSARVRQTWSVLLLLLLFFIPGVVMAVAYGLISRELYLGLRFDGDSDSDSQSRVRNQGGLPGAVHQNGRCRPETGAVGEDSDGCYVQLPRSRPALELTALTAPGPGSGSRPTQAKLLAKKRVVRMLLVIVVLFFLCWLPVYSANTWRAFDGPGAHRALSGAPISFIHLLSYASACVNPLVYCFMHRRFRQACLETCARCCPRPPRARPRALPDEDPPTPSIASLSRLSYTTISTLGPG
Conditions: A431-CCK2R cells, previous assays; cited from earlier work.

Data set [2] is described as follows: log D, octanol/PBS distribution. It counts as physicochemical. Conditions: 111In-labeled peptide.
For a further data set, the target named is T2, rat CCK2R (Rattus norvegicus, UniProt P30553).
T2 construct: physiologically expressing the rat CCK2R; host or cells: AR42J rat pancreatic tumor cells
T2 sequence (P30553 1-452): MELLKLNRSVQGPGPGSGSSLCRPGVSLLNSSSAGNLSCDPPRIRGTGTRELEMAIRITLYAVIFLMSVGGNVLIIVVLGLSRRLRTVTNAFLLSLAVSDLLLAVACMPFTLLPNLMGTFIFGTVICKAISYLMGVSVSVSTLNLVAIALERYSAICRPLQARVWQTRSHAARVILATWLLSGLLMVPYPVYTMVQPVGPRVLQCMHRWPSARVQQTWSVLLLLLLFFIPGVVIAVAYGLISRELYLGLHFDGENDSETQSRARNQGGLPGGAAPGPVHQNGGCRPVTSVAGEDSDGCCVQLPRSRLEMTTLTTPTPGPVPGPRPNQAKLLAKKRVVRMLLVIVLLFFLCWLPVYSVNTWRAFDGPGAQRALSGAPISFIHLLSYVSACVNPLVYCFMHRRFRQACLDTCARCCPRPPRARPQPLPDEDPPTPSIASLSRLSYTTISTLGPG
Briefly: calcium mobilization assay on AR42J cells. It counts as cell-based. Conditions: mean ± SEM.

The target of data set [3] is T1, human CCK2R. The data set can be described thus: calcium mobilization assay on A431-CCK2R cells. Conditions: mean ± SEM. Format: cell-based. (Calcium assays in cells follow changes in intracellular calcium, usually with a dye or a luminescent sensor.)
Experimental: (§2) For calcium mobilization assays evaluating receptor activation, A431-CCK2R cells stably transfected with human CCK2R and AR42J cells expressing rat CCK2R were seeded in flat clear bottom black 96-well plates (Corning, Bagneaux-sur-Loing, France), previously coated with poly-D-ornithine (100 μg/mL, 1 h, 37 °C), at densities of 60 000 and 120 000 cells/well, respectively. After 24 h in culture in a 5% CO2 atmosphere, the cells were rinsed twice with modified HBSS buffer (20 mM HEPES, 0.5 mM MgCl2, 2.6 mM CaCl2, 7.7 mM Na2CO3, 1.4 mM MgSO4, 5.3 mM KCl, 138 mM NaCl, 0.1% BSA, 5.5 mM glucose, 2.5 mM probenecid, pH 7.4) (Sigma-Aldrich, Saint-Quentin-Fallavier, France) and loaded (40 min at 37 °C) with the calcium-sensitive dye Fluo-4 AM (ThermoFisher Scientific, Montigny-Le-Bretonneux, France) containing pluronic acid (20% in dimethyl sulfoxide (DMSO)). […] Briefly, after 18 s recording in basal conditions, 50 μL of graded concentrations of the investigated peptides was added to the incubation medium with a built-in eight-channel pipettor to assess activity. […] EC50 values were calculated with the Prism 4.0 software using a logistic equation. Results were expressed as mean ± standard error of the mean (SEM) for at least three independent experiments in triplicate.
Data set [4] is classed as in vitro ADME. Conditions: 120 min, pH 7.3. As to the method: (§1) In vitro stability studies characterizing the complex stability as well as the metabolic stability of the radiolabeled peptide analogues were carried out in PBS, fresh human serum, and rat liver and rat kidney homogenates. Organ homogenates were prepared from freshly dissected organs homogenized (IKA-Werke, Staufen, Germany) for 1 min at room temperature (RT) in a 20 mM 4-(2-hydroxyethyl)-1-piperazineethanesulfonic acid (HEPES) buffer at pH 7.3 (30% w/v). A fraction of 0.1 mL of radiolabeled peptide diluted in PBS/HEPES was added to 0.9 mL of medium reaching a final concentration of ∼500 pmol/mL and incubated at 37 °C for up to 120 min in rat organ homogenates (n = 2) and up to 24 h in human serum or PBS (n = 1). At each time point, 100 μL of sample was taken treated with 150 μL of ACN to precipitate proteins centrifuged (2000g, 2 min), diluted with water (1:1), and a fraction of 100 μL was injected to the analytical HPLC system. For serum and tissue homogenates, only the soluble phase extracted after centrifugation was analyzed, whereas the radioactivity lost in the pellet was not considered.

The target of data set [5] is T1, human CCK2R. The data set can be described thus: competitive binding against [125I][3-iodo-Tyr12,Leu15]gastrin-I on A431-CCK2R cells. Conditions: unlabeled peptide, three independent assays, read-out: apparent IC50. As to the method:
Binding assays were carried in 96-well filter plates (MultiScreenHTS-FB, Merck Group, Darmstadt, Germany) pretreated with 10 mM TRIS/139 mM NaCl buffer, pH 7.4 (TRIS-buffer) (2 × 250 μL) before 400 000 A431-CCK2R cells per well were added in 35 mM HEPES buffer, pH 7.4, containing 10 mM MgCl2, 14 μM bacitracin, and 0.5% bovine serum albumin (BSA).[46] Competition assays were performed three times in triplicate using increasing concentrations of competitor (0.003–1000 nM) and a constant amount of radioligand (∼40 000 cpm). After 1 h of incubation at room temperature (RT), the medium was removed and the filters were rapidly rinsed with ice-cold TRIS-buffer (2 × 200 μL), removed and counted in a γ-counter. Half-maximal inhibitory concentration (IC50) values were calculated following nonlinear regression with Origin software (MicroCal Origin 6.1, Northampton, MA). Even though incubation was performed in a hypoosmotic solution disturbing the integrity of the cell membrane, we cannot totally exclude that a limited extent of internalization affecting the binding equilibrium occurred. Therefore, the binding affinity measurements obtained from these studies are presented as “apparent IC50” rather than IC50.

A short description of data set [6]: in vivo stability studies in BALB/c mice. Conditions: i.v. On the procedure:
Metabolic studies evaluating the stability of the radioligands were carried out in 7- to 8-week-old female BALB/c mice. With the ^111In-labeled peptide derivatives, the studies were performed for the time point of 10 min p.i. (n = 2). With the ^177Lu-labeled peptide derivatives, additional studies were also carried out for the time point of 30 min and 60 min p.i. (n = 1 for each time point). To allow monitoring of the metabolites by analytical HPLC, the mice were injected with a higher amount of radioactivity (6–9 MBq indium-111, 30–45 MBq lutetium-177) corresponding to ∼1 nmol total peptide intravenously through a lateral tail vein. At different time points, the mice were euthanized by cervical dislocation and urine and a blood sample was collected. Liver and kidneys were excised and homogenized in 20 mM HEPES buffer pH 7.3. The amount of intact radiopeptide and the formation of metabolites was analyzed by analytical HPLC. Prior to injection into the HPLC system, all samples were treated as described for human serum and rat organ homogenate samples.

Data set [7] is described as follows: stability in rat kidney homogenate. It counts as in vitro ADME. Conditions: 120 min incubation, 37 °C. As to the method: as §1
In data set [8] the test system is A431-CCK2R/A431-mock xenografts. The data set can be described thus: biodistribution in A431-CCK2R/A431-mock xenografted BALB/c nude mice. Format: in vivo. On the procedure:
Biodistribution studies evaluating the tumor uptake of the radiolabeled peptides were performed in 7- to 9-week-old female athymic BALB/c nude mice (Charles River, Sulzfeld, Germany). For the induction of tumor xenografts, 150 μL of DMEM containing 2 × 10^6 A431-CCK2R and A431-mock cells were injected subcutaneously in the right and left flank of each mouse, respectively. And 10–14 days after injection, tumors reached a medium weight of ∼0.25 g. The mice were divided into groups of four and injected intravenously via a lateral tail vein with 0.2 MBq of ^111In-labeled compound (0.02 nmol) and 0.7 and 1.5 MBq of the ^177Lu-labeled compound (0.02 and 0.15 nmol). At 4 and 12 h p.i., the mice were sacrificed and the tumors and other tissues (blood, lung, heart, muscle, spleen, intestine, liver, kidneys, stomach, and pancreas) were removed, weighed, and their radioactivity measured in the γ counter together with the rest of the body. Initial biodistribution studies were performed with the three ^177Lu-labeled CCK2R-targeting ligands at an injected peptide amount of 20 pmol for the time point of 4 h p.i. From these studies, two peptide analogues were selected to further characterize the biodistribution profile also at a later time point of 12 h p.i. and at a higher injected peptide amount of 150 pmol. Additional animal studies were performed for the ^111In-labeled conjugates. Percentage of injected activity per gram tissue (%IA/g), tumor-to-organ activity ratios, as well as whole body activity were calculated for each sample and statistical analysis using independent two-population t-test (significance level p < 0.05) was performed using Origin software. For the comparison of more than two groups, data were analyzed using one-way analysis of variance (ANOVA) Holm–Bonferroni-adjusted post hoc analysis (significance level p < 0.05) using Microsoft Excel 2010 software (Microsoft Excel 2010, Microsoft Corporation, WA).

Experimental for rat CCK2R: as §2

On to “DOTA-MG11: DOTA conjugate of the truncated MG analogue [DGlu^1,DesGlu^2–6]MG (MG11) (EAYGWMDF; Synthetic [DGlu1,desGlu2-6]minigastrin: residue 1 is D-Glu, N-terminal DOTA, C-terminal amide (Phe-NH2), Tyr not sulfated)”, for which the IC50 (usually the concentration needed to halve the response being measured) with human CCK2R [1] is 0.9 ± 0.3 nM.

Take `CCCC[C@@H](C(=O)N[C@@H](CC(=O)O)C(=O)N[C@@H](Cc1cccc2ccccc12)C(N)=O)N(C)C(=O)[C@H](Cc1c[nH]c2ccccc12)NC(=O)CNC(=O)[C@@H]1CCCN1C(=O)[C@H](Cc1ccc(O)cc1)NC(=O)[C@@H](CCC(=O)O)NC(=O)CN1CCN(CC(=O)O)CCN(CC(=O)O)CCN(CC(=O)O)CC1` [compound 2] ({DOTA}-[dE]YPGW[NMeNle]D[1Nal]-NH2): in data set [2], the pH-dependent lipophilicity (logD) (commonly lipophilicity at a set pH, counting ionised and neutral species) is -1.75 ± 0.1. Further, the results for the EC50 at rat CCK2R and at human CCK2R [3] were 1.91 ± 0.49 nM and 14.2 ± 2.07 nM, respectively. For the same compound, in data set [4], the “intact radiopeptide in rat liver homogenate” value is 50-61%. Besides, on human CCK2R [5], the IC50 is 0.6 ± 0.3 nM.

In [2], `CCCC[C@@H](C(=O)N[C@@H](CC(=O)O)C(=O)N[C@@H](Cc1cccc2ccccc12)C(N)=O)N(C)C(=O)[C@H](Cc1c[nH]c2ccccc12)NC(=O)CNC(=O)[C@H](Cc1ccc(O)cc1)NC(=O)[C@@H]1CCCN1C(=O)[C@@H](CCC(=O)O)NC(=O)CN1CCN(CC(=O)O)CCN(CC(=O)O)CCN(CC(=O)O)CC1` [compound 1] ({DOTA}-[dE]PYGW[NMeNle]D[1Nal]-NH2) came in with a logD of -2.03 ± 0.1. In addition, the results for the EC50 on rat CCK2R and at human CCK2R [3] were 1.74 ± 0.81 nM and 12.3 ± 2.4 nM, respectively. In addition, the “intact radiopeptide in rat liver homogenate” value in data set [4] was 39-53%. The IC50 on human CCK2R [5] is 1.4 ± 0.6 nM.

In data set [2], `CCCC[C@@H](C(=O)N[C@@H](CC(=O)O)C(=O)N[C@@H](Cc1cccc2ccccc12)C(N)=O)N(C)C(=O)[C@H](Cc1c[nH]c2ccccc12)NC(=O)[C@@H]1CCCN1C(=O)[C@H](Cc1ccc(O)cc1)NC(=O)[C@H](C)NC(=O)[C@@H](CCC(=O)O)NC(=O)CN1CCN(CC(=O)O)CCN(CC(=O)O)CCN(CC(=O)O)CC1` [compound 3] ({DOTA}-[dE]AYPW[NMeNle]D[1Nal]-NH2) showed a logD of -2.05 ± 0.08. In addition, the EC50 (in general, the midpoint of the concentration-response curve) came out at 1.27 ± 0.72 nM at rat CCK2R and 12.4 ± 3.83 nM on human CCK2R [3]. On human CCK2R [5], the IC50 came out at 1.3 ± 0.8 nM.

Turning to `CCCC[C@@H](C(=O)N[C@@H](CC(=O)O)C(=O)N[C@@H](Cc1cccc2ccccc12)C(N)=O)N(C)C(=O)[C@H](Cc1c[nH]c2ccccc12)NC(=O)CNC(=O)[C@H](Cc1ccc(O)cc1)NC(=O)[C@@H]1CCCN1C(=O)[C@@H](CCC(=O)O)NC(=O)CN1CCN(CC(=O)O)CCN(CC(=O)O)CCN(CC(=O)O)CC1` [[^111In]In-1] [metal not drawn] ({DOTA}-[dE]PYGW[NMeNle]D[1Nal]-NH2), in [6] (10 min p.i.), the “intact radiopeptide in blood” value is reported as 80.0 ± 5.2%, the “intact radiopeptide in kidneys” value worked out at 23.4 ± 4.2%, the “intact radiopeptide in liver” value is given as 76.0 ± 0.4% and the “intact radiopeptide in urine” value was determined as 21.8 ± 8.1%. Also, in [7], the “intact radiopeptide in rat kidney homogenate” value was around 5%.

Regarding `CCCC[C@@H](C(=O)N[C@@H](CC(=O)O)C(=O)N[C@@H](Cc1cccc2ccccc12)C(N)=O)N(C)C(=O)[C@H](Cc1c[nH]c2ccccc12)NC(=O)CNC(=O)[C@H](Cc1ccc(O)cc1)NC(=O)[C@@H]1CCCN1C(=O)[C@@H](CCC(=O)O)NC(=O)CN1CCN(CC(=O)O)CCN(CC(=O)O)CCN(CC(=O)O)CC1` [[^177Lu]Lu-1] [metal not drawn] ({DOTA}-[dE]PYGW[NMeNle]D[1Nal]-NH2), the “tumor uptake in A431-CCK2R xenografts” value in data set [8] (20 pmol, 4 h p.i.) was 35 % IA/g. Besides, in data set [8] (150 pmol, 4 h p.i.), the “uptake in A431-mock xenografts” value came to 0.32 ± 0.14 % IA/g, the uptake in blood is 0.07 ± 0.04 % IA/g, the uptake in heart is given as 0.09 ± 0.03 % IA/g and the uptake in spleen was determined as 0.18 ± 0.05 % IA/g. The tumor retention in data set [8] (A431-CCK2R xenografts, 12 h p.i. relative to 4 h p.i., 20 pmol) is above 60%. For the same compound, the “reduction of tumor uptake in A431-CCK2R xenografts” value in [8] (injected peptide amount increased to 150 pmol vs 20 pmol, 4 h p.i.) was “about 50%”. Also, in data set [6] (60 min p.i., n = 1), the “intact radiopeptide in blood” value turned out to be 56.6%, the “intact radiopeptide in kidneys” value was determined as 8.1%, the “intact radiopeptide in liver” value amounted to 30.8% and the “intact radiopeptide in urine” value is on record as 23.0%. In addition, the “intact radiopeptide in rat kidney homogenate” value in data set [7] was around 5%.
